From US9657064B2, “Cell penetrating peptides” (UNIVERSITE DE GENEVE, priority 2012, dated 2017)

Tests used:
[1] = system: ovalbumin CD8+ epitope specific immune response; test: In vivo vaccination of mice with different CPP-OVA fusion polypeptides, Pentamer staining in blood (Example 5); details: for Fold increase in proliferation compared to CPP14: 10 nmol s.c. twice at 14 days of interval, with anti-CD40 and poly-IC, relative to CPP14-OVA reference
Procedure: The experiment was performed as described in Example 3.
Four to eight mice per group were vaccinated twice subcutaneously at 14 days of interval with 10 nmol of fusion polypeptides comprising one of the CPPs indicated in Table 2 fused to the ovalbumin CD8^+ epitope (SEQ ID NO: 3) flanked by the spacers of SEQ ID NO: 11 and SEQ ID NO: 12 at the N-terminal and C-terminal part of the CD8^+ epitope, respectively. Each CPP-OVA fusion polypeptide was injected in PBS with 100 μg anti-CD40. 50 μg poly-IC was injected intramuscularly 7 days after the second vaccination. Immune response was monitored in the blood with a Pentamer staining followed by flow cytometry analysis.
The results are presented in Table 3 as fold increase relative to a CPP-OVA fusion polypeptide of reference comprising CPP14 of SEQ ID NO: 22.

[2] = system: murine lymphoid cells EL4; test: In vitro transduction of fluorescein-labeled CPP-OVA fusion polypeptides, flow cytometry; assay type: cell-based; details: 0.9 μM, 2 h at 37° C., ratio of mean fluorescence index between cells alone and loaded cells
Procedure: (§1) Transduction into cells was monitored using different CPP-OVA fusion polypeptides comprising CPP1, CPP2, CPP8, or CPP10. Each of these CPPs fused with the immunodominant CD8^+ T cell epitope from ovalbumin were chemically synthesized and labeled with fluorescein. 5.10^5 cells were incubated for 2 h at 37° C. with 0.9 μM of the different fusion polypeptides. The cells tested were human lymphoid cells K562, murine lymphoid cells EL4, human astrocytoma cells U251 and murine astrocytoma cells GL261. The cells were washed in an acid buffer to remove all the membrane bound peptide and stained for viability with Live-Dead Yellow. Analysis was performed by flow cytometry. The index of fluorescence indicates the level of fluorescence above the natural auto-fluorescence of the cells. It is the ratio of the mean fluorescence index measured by flow cytometry between the cells alone and the cells loaded with CPP-OVA fusion polypeptides.

[3] = system: human lymphoid cells K562; test: as above; assay type: cell-based; details: 0.9 μM, 2 h at 37° C., ratio of mean fluorescence index between cells alone and loaded cells
Procedure: as §1

[4] = system: murine astrocytoma cells GL261; test: as above; assay type: cell-based; details: 0.9 μM, 2 h at 37° C., ratio of mean fluorescence index between cells alone and loaded cells
Procedure: as §1

[5] = system: human astrocytoma cells U251; test: as above; assay type: cell-based; details: 0.9 μM, 2 h at 37° C., ratio of mean fluorescence index between cells alone and loaded cells
Procedure: as §1

[6] = system: ovalbumin-specific CD8+ T cells; test: Vaccination of mice with CPP-OVA fusion polypeptides, multimer staining of splenocytes (Example 3); assay type: in vivo; details: 2 s.c. vaccinations at 14 days of interval, 20 μg fusion polypeptide + 100 μg anti-CD40, 50 μg poly-IC i.m., PBS control 0.18%
Procedure: Mice were vaccinated twice sub-cutaneously at 14 days of interval with 20 μg of each CPPs-OVA fusion polypeptides and 100 μg anti-CD40, 50 μg poly-IC was injected intramuscularly 10 days after the boost, the mice were sacrificed and the splenocytes stained with a multimer and anti-CD8. Negative control with PBS (A); CPP1-OVA (B); CPP2-OVA (C).
To test the capacity of the polypeptides corresponding to constructs 1 and 2 to stimulate antigen-specific CD8^+ T cells in more stringent conditions, they were tested in vivo in a vaccination protocol (FIG. 2). In order to elicit an in vivo response, the polypeptide vaccine must be taken up by naturally present antigen presenting cells in the injected animal, and stimulation of polyclonal T cells must be highly efficient if ovalbumin-specific T cells are to be detected ex vivo. The read-out for these experiments was flow cytometry of splenocytes, using MHC-peptide multimers to detect ovalbumin-specific CD8^+ T cells.

| Sequence | Fold increase in proliferation compared to CPP14 [1] | index of fluorescence [2] | index of fluorescence [3] | index of fluorescence [4] | index of fluorescence [5] | immunogenic potential compared to the reference fusion polypeptide comprising CPP14 ([1]; 10 nmol s.c. twice) | CD8+ T cells multimer positive (ovalbumin-specific CD8+ T cells) [6] |
| --- | --- | --- | --- | --- | --- | --- | --- |
| REVAAAKSSENDRLRLLLK [CPP10] | 2.17 | 4 | 3.7 | 1.9 | 4 |  |  |
| KRYKNRVA [CPP7, 8-amino acid-long fragment of Zebra, positions 178 to 185; negative control, tested as CPP-OVA fusion, reference compound] | 0.65 |  |  |  |  | lower immunogenic potential |  |
| KRYKNRVASRKSRAKFKQLLQHYREVAAAKEQLESIINFEKLTEWT [construct 2] |  |  |  |  |  |  | over 1% |
| KRYKNRVASRKSRAKFK (CCP1) [CPP1] | 1.74 | 4.8 | 3 | 2.4 | 4.5 |  |  |
| QHYREVAAAKSSEND [CPP8] | 1.28 | 2.5 | 1.9 | 1.4 | 2 |  |  |
| KRYKNRVASRKSRAKFKQLLQHYREVAAAK [CPP2] | 1.41 | 57.7 | 15 | 20.8 | 25.1 |  |  |
